US11555031B2, “Compounds and methods for regulating insulin secretion” (The Broad Institute, Inc., priority 2017, dated 2023)
Entries after “also recorded” stand apart in the source; their conditions may differ.

Key:
alpha-TC-1-6 = test: Luminescent glucagon secretion assay in alpha-cell line; assay type: cell-based; details: compared with DMSO negative control
Method: FIG. 10 depicts the quantification of α-cell secretory activity in cells treated with DMSO, KCl, or Compound 8, using a luminescent assay for glucagon secretion.
To investigate the cell-type specificity of the compound, and to exclude the possibility that Compound 8 acts as a generic secretagogue, the compound was tested on secretion from a rodent alpha-cell line, “alpha-TC-1-6,” using a luciferase reporter for glucagon secretion that mirrors the insulin secretion assay (FIG. 10).

[1] = system: Mouse MING insulinoma cells; test: Calcium influx assay (Fluo-4, FLIPR Tetra); assay type: cell-based
Method: Mouse MING insulinoma cells were cultured in DMEM medium supplemented with 10% FBS, 100 U/mL penicillin, 100 μg/mL streptomycin, and 55 μM β-mercaptoethanol. Two days prior to the experiment, cells were seeded in 384-well clear-bottom microplates at 17,500 cells/well. For calcium imaging, microplates were washed three times with Hanks' Balanced Salt Solution (HBSS, containing Ca^2+/Mg^2+) using the CyBio Well vario plate washer. Cells were loaded with 2 μM of the calcium indicator Fluo-4 for 1 hour at 37° C. in Krebs-Ringer buffer (KRB) with 3 g/L glucose. After dye loading, the cells were washed again with HBSS and incubated in KRB with 0.5 g/L glucose for 30 minutes at 37° C. (glucose starvation conditions). After glucose starvation, microplates were transferred to FLIPR Tetra, where an automated 384-well dispensing unit added glucose (glucose stimulation conditions) together with Compound 8. Positive control measurements (“+CNT”) were performed in wells with ionomycin to prompt calcium influx without the presence of glucose. Negative control measurements (“−CNT”) were also performed in wells with Compound 8 present in and without glucose. All wells were read simultaneously at 1 Hz intervals. FIG. 20 illustrates the fold increase of measured calcium over baseline measurements performed in the absence of glucose. […] Without wishing to be bound by theory, it is believed that insulin secretagogues acts between KATP channels stimulated by glucose, and the calcium channels that induce insulin secretion.

Plasma stability, rat = assay type: in vitro ADME
Method: Measurements were performed on human, mouse (CD-1) and rat (SD) microsomes to determine the t1/2, the plasma protein binding (“PPB”) and the plasma stability (“PS”).

INS-1E cells = test: Luciferase Insulin Secretion Assay (proinsulin-Gaussia luciferase reporter); assay type: cell-based, rat; details: INS-1E cells; 2.8 mM vs 16.7 mM glucose
From the text: A high-throughput luminescent insulin secretion assay was developed and performed to identify compounds that amplified insulin secretion only in the presence of a permissive glucose environment (FIG. 3). The assay used in compound screening is described in International Patent Publication No. WO2013070796A3, PCT/US2012/063982, and in Burns et al., High-Throughput Luminescent Reporter of Insulin Secretion for Discovering Regulators of Pancreatic Beta-Cell Function. Cell Metab. 2015 Jan. 6; 21(1):126-37.
The assay is a luminescent insulin secretion assay created by inserting Gaussia luciferase within the C-peptide portion of the insulin prohormone. Gaussia luciferase was chosen because of its small size and bright luciferase signal. To ensure full activity of the luciferase, a version was used that was codon-optimized for expression in mammalian cells. The enzyme was flanked with additional cleavage sites for prohormone convertase 2 (PC2), such that no extra amino acids should be present on the ends of the enzyme after processing within the vesicles (FIG. 4). Rat (INS-1E; Merglen et al., 2004) beta-cell lines stably expressing the reporter construct were generated. Assays using this cell type are referred to herein as Luciferase Insulin Secretion Assay.
A search for glucose-dependent insulin secretagogues was conducting by screening 384,216 compounds at a single concentration (10 μM) in duplicate using the Luciferase Insulin Secretion Assay, to identify those that increase insulin secretion only in the presence of high glucose (11.1 mM) (FIG. 6). These assays were performed in 1536 well format. A Z′ factor of 0.35 was obtained with respect the positive control (300 μM IBMX). The cutoff value selected was 45% activation, which was 3-4 standard deviations above background (solid uppermost line; FIG. 6).
For standard secretion assays, INS-1E cells were plated in 96-well format, preincubated for 1 hr in Krebs Ringer Buffer (KRB) with 2.8 mM glucose, and then stimulated for 1 hr in fresh KRB containing varying amounts of glucose and compounds. Insulin or C-peptide concentration was determined using an ELISA (Mercodia), following the manufacturer's protocol. Luciferase activity was determined from the same samples by adding the coelenterazine substrate to the supernatant to a final concentration of 10 μM and reading on a standard plate reader (BioTek).
INS-1E cells were expanded to 80% confluence in their growth medium, washed once in PBS, and preincubated for 1 hr at 37° C. in KRB with 2.8 mM glucose. Cells were then dissociated, spun at 300×g for 2 min, resuspended in fresh KRB without glucose, and filtered through 40 μm mesh (Becton Dickinson). Next, the cells were counted and diluted in KRB to 1×10^6 cells per ml, and glucose was added as required for each experiment. Cells were then seeded in 384-well format, 3×10^4 cells in 30 μl per well, using a Multidrop Combi device (Thermo Scientific). Compounds were pinned into each well using a Vario robot (CyBio) to a final concentration of 30 μM, and the plates were then incubated for 2 hr at 37° C. For assays involving a transfer step, the plates were then centrifuged at 300×g for 2 min, and 20 μl of supernatant was transferred to a new 384-well plate. Coelenterazine substrate was then added to a final concentration of 10 μM, and luciferase activity was determined using a standard plate reader (BioTek).

Cc1cccc(NC(=O)c2ccc(OCc3c(C)noc3C)cc2)c1C [Compound 8]
alpha-cell secretory activity (luciferase reporter for glucagon secretion) (alpha-TC-1-6): not to augment luciferase secretion; also recorded: insignificant change from DMSO negative control
calcium influx in β-cells in the presence of glucose ([1]; glucose stimulation conditions (16.7 mM glucose), 1 μM, 10 μM): does promote calcium influx
dose dependence of calcium influx in beta cells ([1]; only in the presence of glucose): dose dependent response
calcium influx in β-cells in the absence of glucose ([1]; without glucose): does not invoke a calcium influx
PS (Plasma stability, rat): 97.5 % remaining
glucose-dependent (glucose-stimulated) insulin secretion, luciferase reporter (INS-1E cells): significant increase in glucose-dependent insulin secretion; also recorded: dose-dependent effect; also recorded: more effective than even the positive control, forskolin
